According to patent US20240366728A1, “Treatment of Diabetes Mellitus” (Carmot Therapeutics Inc., priority 2023, published 2024):
“Also recorded” adds a separate entry of the source.

Key:
human GIPR = target: T1, human GIPR (Homo sapiens, UniProt P48546); test: cAMP accumulation, SNAP-human GIPR CHO-K1 cells
T1 sequence (P48546 22-466): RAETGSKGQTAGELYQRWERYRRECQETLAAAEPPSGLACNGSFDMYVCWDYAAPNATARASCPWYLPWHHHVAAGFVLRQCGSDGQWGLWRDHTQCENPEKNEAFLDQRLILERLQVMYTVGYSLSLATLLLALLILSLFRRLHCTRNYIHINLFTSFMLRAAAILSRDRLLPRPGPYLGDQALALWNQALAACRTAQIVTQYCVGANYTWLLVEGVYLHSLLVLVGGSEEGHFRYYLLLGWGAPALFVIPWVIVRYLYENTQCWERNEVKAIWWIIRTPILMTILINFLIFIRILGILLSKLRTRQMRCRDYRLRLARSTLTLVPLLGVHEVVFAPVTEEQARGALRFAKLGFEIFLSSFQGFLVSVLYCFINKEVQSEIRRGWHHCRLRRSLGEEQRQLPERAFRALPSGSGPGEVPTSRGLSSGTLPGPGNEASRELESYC

human GLP-1R = human GLP-1R (Homo sapiens, UniProt P43220); test: β-arrestin-2 recruitment (NanoBiT), human GLP-1R; assay type: cell-based; details: read-out: hGLP-1R β-arrestin-2 % Emax; Table 17
Procedure: To measure GLP-1R and GIPR-mediated β-arrestin recruitment, we utilized Promega's NanoBiT® technology or NanoLuc® Binary Technology. The NanoLuc luciferase is split into two subunits, called LgBiT and SmBIT, which are expressed in HEK293 cells as fusion proteins at the C-terminus of GLP-IR or GIPR and the N-terminus of β-arrestin-2. […] The next day, the media was removed and replaced with […] 1:100 dilution of Nano-Glo® Live Cell Substrate in Opti-MEM™ and equilibrated to room temperature for ten minutes. Background luminescence was measured before 10 nL compound was added using an ECHO Acoustic Liquid Handler.
To measure GLP-1R and GIPR-mediated β-arrestin recruitment, Promega's NanoBiT® technology or NanoLuc® Binary Technology were utilized. Both allow for the detection and quantification of protein: protein interactions in live cells (Samms et al., Trends Endocrinol Metab 31:410-21). The NanoLuc luciferase is split into two subunits, called LgBiT and SmBIT, which are expressed in HEK293 cells as fusion proteins at the C-terminus of GLP-1R or GIPR and the N-terminus of β-arrestin-2, respectively. […] Background luminescence was measured before 10 nL compound was added using an ECHO Acoustic Liquid Handler. Luminescence was measured at 1.5-minute intervals for 30 minutes.

[1] = Phase 1 first-in-human SAD/MAD study: pharmacokinetics; assay type: in vivo; details: for Tmax: median Tmax
Description: This was a randomized, double-blind, placebo-controlled, dose escalation first-in-human (FIH) conducted from December 2018 to January 2020 at a study center in Victoria, Australia in accordance with principles of the Declaration of Helsinki (Ethical Principles for Medical Research Involving Human Subjects), and the NHMRC National Statement on Ethical Conduct in Human Research 2007 (updated 2018). (Registered on the Australian New Zealand Clinical Trials Registry [ANZCTR] under the identifier: ACTRN12618001988246).
Daily doses were given on Day 2 to Day 14. Cohort M1 was dosed with the highest dose level, determined based on the safety and PK data from the preceding Part 1 (SAD), and doses were decreased sequentially for Cohorts M2 and M3 (FIG. 46B).
Characterization of PK profile: PK parameters included maximum concentration (Cmax), time to maximum concentration (Tmax), area under the plasma concentration-time curve (AUC). Blood samples were collected within two hours prior to dosing for pre-dose samples and within ±10 minutes of the nominal/planned time post-dose. For Part 1 (SAD) participants, samples were taken at −2 to 0 hr (pre-dose), 1, 2, 3, 4, 6, 8, 12, 16, 20 hr (Day 1), 24, 30, 36 hr (Day 2), 48 hr (Day 3) and on Day 8 (±1 day, follow-up) post-dose. For Part 2 (MAD) participants, collection occurred −2 to 0 hr (pre-dose), 2, 3, 4, 6, 8, 12 hr (Day 1), 24 hr (Day 2), 48, 60 hr (Day 3), 72 hr (Day 4), 96 hr (Day 5). For Days 7, 8, 11 and 14, samples were taken −2 to 0 hr (pre-dose), 12 hr on Day 7, 2, 4, 6, 8, 12 hr on Day 14, 24, 36 hr on Day 15, 48 hr on Day 16 and on Day 21 (+1 day, follow-up) post-dose.
Estimates for PK parameters are tabulated and summarized by descriptive statistics (mean, standard deviation [SD], median, minimum, and maximum, coefficient of variation [CV %], geometric mean and geometric CV %). Dose proportionality was analyzed using the power model with log-transformed PK parameter values and log-transformed dose. The power model was used to estimate the slope parameter and the 90% confidence intervals (CIs) for the slope. Dose proportionality was generally concluded if the 90% CIs around the slope estimate include the value of 1.

GIPR+/+ and GIPR-/- mice = test: intraperitoneal glucose tolerance test in GIPR+/+ and GIPR-/- mice; assay type: in vivo, mouse

Sequence of human GLP-1R (P43220 24-463): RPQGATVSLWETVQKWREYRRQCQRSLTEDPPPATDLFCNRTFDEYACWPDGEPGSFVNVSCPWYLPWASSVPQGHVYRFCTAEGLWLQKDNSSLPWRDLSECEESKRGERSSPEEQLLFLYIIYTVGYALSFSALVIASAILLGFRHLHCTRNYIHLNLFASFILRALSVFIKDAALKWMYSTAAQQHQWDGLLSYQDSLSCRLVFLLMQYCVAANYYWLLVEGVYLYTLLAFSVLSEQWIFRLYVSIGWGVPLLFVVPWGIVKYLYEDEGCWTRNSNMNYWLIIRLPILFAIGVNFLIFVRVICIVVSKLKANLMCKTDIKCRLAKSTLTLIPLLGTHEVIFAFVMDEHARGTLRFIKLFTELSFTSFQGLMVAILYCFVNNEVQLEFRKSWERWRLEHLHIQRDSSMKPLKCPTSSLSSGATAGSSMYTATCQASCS

`CCCCCCCCCCCCCCCC(=O)N[C@@H](CCC(=O)NCCCC[C@H](NC(=O)[C@H](CO)NC(=O)[C@@H]1CCCN1C(=O)[C@@H]1CCCN1C(=O)[C@@H]1CCCN1C(=O)[C@H](C)NC(=O)CNC(=O)[C@H](CO)NC(=O)[C@H](CO)NC(=O)[C@@H]1CCCN1C(=O)CNC(=O)CNC(=O)[C@H](C)NC(=O)[C@H](CC(C)C)NC(=O)[C@H](CC(C)C)NC(=O)[C@H](Cc1c[nH]c2ccccc12)NC(=O)[C@H](CC(N)=O)NC(=O)[C@@H](NC(=O)[C@H](Cc1ccccc1)NC(=O)[C@H](CCC(=O)O)NC(=O)C(C)(C)NC(=O)[C@H](C)NC(=O)[C@H](C)NC(=O)[C@H](CCC(N)=O)NC(=O)[C@H](CCCCN)NC(=O)[C@H](CC(=O)O)NC(=O)[C@H](CC(C)C)NC(=O)[C@H](Cc1ccc(O)cc1)NC(=O)[C@@H](NC(=O)[C@H](CO)NC(=O)[C@H](Cc1ccc(O)cc1)NC(=O)[C@H](CC(=O)O)NC(=O)[C@H](CO)NC(=O)[C@@H](NC(=O)[C@H](Cc1ccccc1)NC(=O)[C@@H](NC(=O)CNC(=O)[C@H](CCC(=O)O)NC(=O)CSCC(=O)NCCN1CCCCC1=O)[C@@H](C)O)[C@@H](C)O)[C@@H](C)CC)C(C)C)C(N)=O)C(=O)O` [CT-868] gave an Emax (human GIPR; CHO-K1, read-out: hGIPR cAMP (-alb) % Emax) of 41%, an EC50 (human GIPR; potency activating cAMP at human GIPR, value of b126) of about 3.3 nM and an Emax (human GLP-1R) of 1.5%. The “plasma concentrations after 14 days of dosing vs dose (in words)” value ([1]; MAD 0.75-5.0 mg) was “dose-related but not dose-proportional”, the “plasma concentrations over repeated daily dosing (in words)” value ([1]; MAD 0.75-5.0 mg) was “reached a plateau after a few days of dosing” and the Tmax ([1]; human, in vivo, 0.5 mg) was 3 h. For the same compound, the AUC0-t ([1]; human, in vivo, 1.5 mg) was 154.2 [45.7%] h*ng/ml, the AUC(0-inf) ([1]; human, in vivo, 1.5 mg) was 184.9 [47.6%] h*ng/ml and the “Cmax, geometric mean (% CV)” value ([1]; human, in vivo, 1.5 mg) was 5.62 [28.1%] ng/ml. The half-life ([1]; human, in vivo, 1.5 mg) was 4640 min, the “median Tmax” value ([1]; human, in vivo, 1.5 mg) was 8.0 h and the AUC(0-inf) ([1]; human, in vivo, 1.5 mg, AUC0-inf) was 209 ng·h/mL. It also gave an AUC0-t ([1]; human, in vivo, 1.5 mg, AUC0-t) of 167 ng·h/mL, a Cmax ([1]; human, in vivo, 1.5 mg, Cmax, geometric mean (% CV)) of 7.79 ng/mL and a Tmax ([1]; human, in vivo, 1.5 mg) of 6 h. It also gave a Tmax ([1]; human, in vivo, 7.5 mg) of 20 h, a half-life ([1]; human, in vivo, 11 mg) of 1180 min and a Tmax ([1]; human, in vivo, predominant range) of 3 to 12 h. The “mean Cmax vs dose (in words)” value ([1]; in vivo) was “increased with increasing dose level” and the “time to maximum plasma concentrations after the first dose” value ([1]; in vivo) was 48 to 96 h.

For `CCCCCCCCCCCCCCCC(=O)N[C@@H](CCC(=O)NCCCC[C@H](NC(=O)[C@H](CO)NC(=O)[C@@H]1CCCN1C(=O)[C@@H]1CCCN1C(=O)[C@@H]1CCCN1C(=O)[C@H](C)NC(=O)CNC(=O)[C@H](CO)NC(=O)[C@H](CO)NC(=O)[C@@H]1CCCN1C(=O)CNC(=O)CNC(=O)[C@H](C)NC(=O)[C@H](CC(C)C)NC(=O)[C@H](CC(C)C)NC(=O)[C@H](Cc1c[nH]c2ccccc12)NC(=O)[C@H](CC(N)=O)NC(=O)[C@@H](NC(=O)[C@H](Cc1ccccc1)NC(=O)[C@H](CCC(=O)O)NC(=O)C(C)(C)NC(=O)[C@H](C)NC(=O)[C@H](C)NC(=O)[C@H](CCC(N)=O)NC(=O)[C@H](CCCCN)NC(=O)[C@H](CC(=O)O)NC(=O)[C@H](CC(C)C)NC(=O)[C@H](Cc1ccc(O)cc1)NC(=O)[C@@H](NC(=O)[C@H](CO)NC(=O)[C@H](Cc1ccc(O)cc1)NC(=O)[C@H](CC(=O)O)NC(=O)[C@H](CO)NC(=O)[C@@H](NC(=O)[C@H](Cc1ccccc1)NC(=O)[C@@H](NC(=O)CNC(=O)[C@H](CCC(=O)O)NC(=O)CSCC(=O)NCCN1C(=O)CSC1=O)[C@@H](C)O)[C@@H](C)O)[C@@H](C)CC)C(C)C)C(N)=O)C(=O)O` [CT-859], the “reduction in GLUC AUC in GTT” value (GIPR+/+ and GIPR-/- mice; 20 nmol/kg, 4 h after dosing) was 62%, the “glucose lowering (in words)” value (GIPR+/+ and GIPR-/- mice; 20 and 200 nmol/kg) was “efficacious at lowering glucose levels” and the “duration of glucose lowering (in words)” value (GIPR+/+ and GIPR-/- mice; single 20 nmol/kg, ipGTT at 4, 24, 48 h) was “maintained its activity at 24 and 48 hours; also recorded: maintained significant reduction after 24 h and 48 h”.
